The values below come from US6756374B2, “Diaminothiazoles having antiproliferative activity” (Hoffmann-La Roche Inc., priority 2001, dated 2004).

The IC50 is the point on the concentration scale where inhibition reaches its midpoint.

Test [1] deals with human cyclin B-CDK1 (Homo sapiens, UniProt P06493). Kind of test: FlashPlate kinase assay, cyclin B-CDK1. The class given is biochemical. The note with it: Rb protein substrate, 1 μM ATP. The method, then: (§1) To determine inhibition of Cdk4, Cdk2 and Cdk1 activity, kinase assays were conducted using FlashPlate™ assays (NEN™-Life Science Products). FlashPlate assays were performed using recombinant human cyclin B-CDK1, human cyclin E-CDK2 or human cyclin D1-CDK4 complexes. GST-cyclinE (GST-cycE), CDK2, GST-cyclinB (GST-cycB), CDK1, GST-CDK4 and cyclin D1 (cycD1) cDNA clones in baculovirus vectors were provided by Dr. W. Harper at the Baylor College of Medicine, Houston, Tex.
human cyclin B-CDK1, sequence (P06493 whole entry): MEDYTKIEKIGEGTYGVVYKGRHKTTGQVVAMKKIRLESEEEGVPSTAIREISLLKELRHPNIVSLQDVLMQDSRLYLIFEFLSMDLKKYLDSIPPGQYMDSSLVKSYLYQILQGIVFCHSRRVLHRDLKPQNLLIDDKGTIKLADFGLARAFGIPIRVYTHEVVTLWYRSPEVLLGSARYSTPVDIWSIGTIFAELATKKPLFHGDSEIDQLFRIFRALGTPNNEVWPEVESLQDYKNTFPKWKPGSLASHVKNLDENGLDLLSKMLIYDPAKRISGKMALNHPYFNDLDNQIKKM
human cyclin B-CDK1, sequence (P14635 whole entry partner): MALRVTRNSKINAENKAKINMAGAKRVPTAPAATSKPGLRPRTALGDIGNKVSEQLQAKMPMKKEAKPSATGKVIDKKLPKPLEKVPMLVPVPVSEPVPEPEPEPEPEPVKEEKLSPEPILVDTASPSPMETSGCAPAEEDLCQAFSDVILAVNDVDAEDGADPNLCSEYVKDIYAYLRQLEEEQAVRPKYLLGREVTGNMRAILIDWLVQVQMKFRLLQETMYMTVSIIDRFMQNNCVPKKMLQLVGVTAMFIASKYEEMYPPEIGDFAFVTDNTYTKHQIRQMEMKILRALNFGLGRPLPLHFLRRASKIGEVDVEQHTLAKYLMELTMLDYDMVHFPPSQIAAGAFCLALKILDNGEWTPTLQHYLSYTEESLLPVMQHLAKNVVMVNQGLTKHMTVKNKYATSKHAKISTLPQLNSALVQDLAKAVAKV
(§2) The expression of the 62Kd protein was under the control of an IPTG inducible promoter in an M15 E. coli strain. Cells were lysed by sonication and purification was carried out by binding lysates at pH 8.0 to a Ni-chelated agarose column pretreated with 1 mM imidazole. The resin was then washed several times with incrementally decreasing pH buffers to pH 6.0, and eluted with 500 mM imidazole. Eluted protein was dialysed against 20 mM HEPES pH 7.5, 30% glycerol, 200 mM NaCl, and 1 mM DTT. Purified Rb fusion protein stocks were quantitated for protein concentration, aliquoted, and stored at −70° C.
(§3) For all three kinase assays reported herein, 96-well FlashPlates were coated with Rb protein at 10 μg/ml, using 100 μl per well. Plates were incubated at 4° C. overnight or at room temperature for 3 hours on a shaker. To control for nonspecific phosphorylation, one row of wells was coated with 100 μl/well coating buffer (20 mM HEPES, 0.2 M NaCl). Plates were then washed twice with wash buffer (0.01% Tween 20 in phosphate-buffered saline). Compounds to be tested (“test compounds”) were added to the wells at 5×final concentration. Reactions were initiated by immediate addition of 40 μl reaction mix (25 mM HEPES, 20 mM MgCl2, 0.002% Tween 20, 2 mM DTT, 1 μM ATP, 4 nM ^33P-ATP) and a sufficient amount of enzyme to give counts that were at least 10-fold above background. Plates were incubated at room temperature on a shaker for 30 minutes. Plates were washed four times with the wash buffer, sealed, and counted on the TopCount scintillation counter (Packard Instrument Co., Downers Grove, Ill.]. The percent inhibition of Rb phosphorylation, which is a measure of the inhibition of CDK activity, was determined according to the following formula: [formula]
(§4) where “test compound” refers to the average counts per minute of the test duplicates, “nonspecific” refers to the average counts per minute when no CyclinD/Cdk4, etc., was added, and “total” refers to the average counts per minute when no compound was added.

In test [2] the test system is HCT116. Kind of test: Tetrazolium dye (MTT) proliferation assay. The test is classed as cell-based. The note with it: Homo sapiens, HCT-116; HCT116 colorectal carcinoma cell line. The method, then:
The cell line used was HCT116, a colorectal carcinoma cell line obtained from the American Type Cell Culture Collection (ATCC;
Rockville, Md.). The cells were grown in McCoy's 5A medium supplemented with 10% FCS and L-glutamine.
Cells were plated at the appropriate seeding density to give logarithmic growth over the course of the assay in a 96-well tissue culture plate. Plates were incubated overnight at 37° C. in a humidified incubator with 5% CO2. The next day, test compounds were serially diluted to four times the final concentration in the appropriate medium containing 1.2% DMSO. One-fourth final volume of each dilution was added in duplicate to the plates containing cells. The same volume of 1.2% DMSO in medium was added to a row of “control wells” such that the final concentration of DMSO in each well was 0.3%. Wells to which no cells were added served as the “blank.” Wells to which no inhibitor was added served as “no inhibitor control.” The plates were) returned to the incubator, and at set time points (determined by their growth curves) plates were analyzed as described below.
3-(4,5-dimethylthiazole-2-yl)-2,5-diphenyl-2H-tetrazolium bromide (thiazolyl blue; MTT; Sigma) was added to each well to yield a final concentration of 1 mg/ml. Plates were returned to the incubator for 2.5-3 hours at 37° C. The MTT-containing medium was removed and the resulting formazan metabolite was solubilized in 100% ethanol with shaking for 15 minutes at room temperature. Absorbance readings were taken in a microtiter plate reader (Dynatech and Molecular Devices plate readers were used interchangeably) at a wavelength of 570 nm with a 650 nm reference. Percent inhibition (% INH) is calculated by subtracting the absorbance of the blank well from all wells, then subtracting the ratio of the average absorbance of each test duplicate (SAVE) by the average of the controls (CAVE) from 1.00. The final number is then multiplied by 100 (% INH=(1.00−SAVE/CAVE)×100).

The target of test [3] is human cyclin D1-CDK4 (Homo sapiens, UniProt P11802). Description: FlashPlate kinase assay, cyclin D1-CDK4. The test is classed as biochemical. Particulars: Rb protein substrate, 1 μM ATP. As for the experimental part: as §1, §2, §3, §4
human cyclin D1-CDK4, sequence (P11802 whole entry): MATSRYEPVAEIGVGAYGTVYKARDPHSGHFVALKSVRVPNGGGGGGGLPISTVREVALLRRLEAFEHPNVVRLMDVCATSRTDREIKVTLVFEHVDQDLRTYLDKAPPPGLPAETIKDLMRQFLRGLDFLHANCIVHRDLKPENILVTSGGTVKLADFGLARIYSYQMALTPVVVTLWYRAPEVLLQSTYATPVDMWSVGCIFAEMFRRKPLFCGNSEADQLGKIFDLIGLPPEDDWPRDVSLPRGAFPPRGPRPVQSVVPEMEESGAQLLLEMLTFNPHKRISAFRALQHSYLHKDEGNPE
human cyclin D1-CDK4, sequence (P24385 whole entry partner): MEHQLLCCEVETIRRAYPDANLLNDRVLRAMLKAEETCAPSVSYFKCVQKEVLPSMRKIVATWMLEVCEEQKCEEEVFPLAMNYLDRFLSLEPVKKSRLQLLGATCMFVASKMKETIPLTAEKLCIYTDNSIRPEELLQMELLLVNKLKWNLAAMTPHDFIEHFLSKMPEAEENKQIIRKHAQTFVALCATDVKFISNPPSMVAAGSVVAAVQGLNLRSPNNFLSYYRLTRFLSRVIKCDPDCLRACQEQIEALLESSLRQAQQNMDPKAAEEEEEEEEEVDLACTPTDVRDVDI
For test [4], the target named is human cyclin E-CDK2 (Homo sapiens, UniProt P24941). Kind of test: FlashPlate kinase assay, cyclin E-CDK2. The test is classed as biochemical. The note with it: Rb protein substrate, 1 μM ATP. As for the experimental part: as §1, §2, §3, §4

Structures are written as SMILES.

Consider `COc1cc(OC)cc(C(=O)c2sc(Nc3ccc(N4CCN(C)CC4)c(F)c3)nc2N)c1` [Example 39, [4-Amino-2-[[3-fluoro-4-(4-methyl-1-piperazinyl)phenyl]amino]-5-thiazolyl](3,5-dimethoxyphenyl)methanone], for which the IC50 in test [1] stood at 2.8 µM; in test [2], 3.6 µM; in test [3], 0.021 µM; in test [4], 7.9 µM.
Consider `COc1cccc(C(=O)c2sc(Nc3ccc(N4CCN(C)CC4)c(F)c3)nc2N)c1` [Example 40, [4-Amino-2-[[3-fluoro-4-(4-methyl-1-piperazinyl)phenyl]amino]-5-thiazolyl](3-methoxyphenyl)methanone], for which the IC50 was 1.3 µM in test [1], 3 µM in test [2], 0.014 µM in test [3] and 3.1 µM in test [4].
Consider `CC(C)N1CCN(c2ccc(Nc3nc(N)c(C(=O)c4ccc5c(c4)OCCO5)s3)cc2)CC1` [Example 41, [4-Amino-2-[[4-[4-(1-methylethyl)-1-piperazinyl]phenyl]amino]-5-thiazolyl](2,3-dihydro-1,4-benzodioxin-6-yl)methanone], for which the IC50 worked out at 2.9 µM in test [1], 3 µM in test [2], 0.015 µM in test [3] and 3.7 µM in test [4].
For `CC(C)N1CCN(c2ccc(Nc3nc(N)c(C(=O)c4ccc5c(c4)OCO5)s3)cc2)CC1` [Example 42, [4-Amino-2-[[4-[4-(1-methylethyl)-1-piperazinyl]phenyl]amino]-5-thiazolyl](1,3-benzodioxol-5-yl)methanone], the IC50 stood at 1.9 µM in test [1], 1.5 µM in test [2], 0.01 µM in test [3] and 2.9 µM in test [4].
The corresponding values for `COc1cccc(C(=O)c2sc(Nc3ccc(N4CCN(C(C)C)CC4)cc3)nc2N)c1` [Example 43, [4-Amino-2-[[4-[4-(1-methylethyl)-1-piperazinyl]phenyl]amino]-5-thiazolyl](3-methoxyphenyl)methanone] are 1.9 µM, 1.3 µM, 0.021 µM and 3.4 µM.
In the case of `COc1cc(OC)cc(C(=O)c2sc(Nc3ccc(N4CCN(C(C)C)CC4)cc3)nc2N)c1` [Example 44, [4-Amino-2-[[4-[4-(1-methylethyl)-1-piperazinyl]phenyl]amino]-5-thiazolyl](3,5-dimethoxyphenyl)methanone], the IC50 amounted to 1.8 µM in test [1], 3.8 µM in test [2], 0.028 µM in test [3] and 11.9 µM in test [4].
For `CC(=O)Nc1ccc(C(=O)c2sc(Nc3ccc(N4CCN(C(C)C)CC4)cc3)nc2N)cc1` [Example 45], the IC50 came out at 5.6 µM in test [1], 2.9 µM in test [2], 0.025 µM in test [3] and 4.9 µM in test [4].
On to `CCN(CC)c1ccc(C(=O)c2sc(Nc3ccc(N4CCN(C(C)C)CC4)cc3)nc2N)cc1` [Example 46, [4-Amino-2-[[4-[4-(1-methylethyl)-1-piperazinyl]phenyl]amino]-5-thiazolyl][4-(diethylamino)phenyl]methanone], for which the IC50 in test [1] was 3.6 µM; in test [2], 3.6 µM; in test [3], 0.014 µM; in test [4], 5.2 µM.
For `CC(=O)N1CCN(c2ccc(Nc3nc(N)c(C(=O)c4ccc5c(c4)OCO5)s3)cc2)CC1` [Example 47, 1-Acetyl-4-[4-[[4-amino-5-[(1,3-benzodioxol-5-yl)carbonyl]-2-thiazolyl]amino]phenyl]piperazine], the IC50 in test [1] was determined as 0.5 µM; in test [2], 2.8 µM; in test [3], 0.043 µM; in test [4] it was 0.9 µM.
For the compound `CCN(CC)c1ccc(C(=O)c2sc(Nc3ccc(N4CCN(C(C)=O)CC4)cc3)nc2N)cc1` [Example 48, 1-Acetyl-4-[4-[[4-amino-5-[4-(diethylamino)benzoyl]-2-thiazolyl]amino]phenyl]piperazine], the IC50 in test [1] worked out at 2.3 µM; in test [2], 13.3 µM; in test [3], 0.01 µM; in test [4] it was 7.1 µM.
For the compound `Nc1nc(Nc2ccc(N3CCN(CCO)CC3)cc2)sc1C(=O)c1ccc2c(c1)OCCO2` [Example 49, [4-Amino-2-[[4-[4-(2-hydroxyethyl)-1-piperazinyl]phenyl]amino]-5-thiazolyl](2,3-dihydro-1,4-benzodioxin-6-yl)methanone], the IC50 in test [1] was 2.1 µM; in test [2] it was 5.3 µM; in test [3], 0.015 µM; in test [4], 1.5 µM.
With `Nc1nc(Nc2ccc(N3CCN(CCO)CC3)cc2)sc1C(=O)c1ccc(N2CCCC2)cc1` [Example 50, [4-Amino-2-[[4-[4-(2-hydroxyethyl)-1-piperazinyl]phenyl]amino]-5-thiazolyl][4-(1-pyrrolidinyl)phenyl]methanone], the IC50 in test [1] came out at 5.5 µM; in test [2] it was 9.3 µM; in test [3], 0.03 µM; in test [4] it was 2.5 µM.
On to `Nc1nc(Nc2ccc(N3CCN(CCO)CC3)cc2)sc1C(=O)c1cccc(F)c1` [Example 51], for which the IC50 turned out to be 0.9 µM in test [1], 0.9 µM in test [2], 0.02 µM in test [3] and 0.5 µM in test [4].
`Nc1nc(Nc2ccc(N3CCN(CCO)CC3)cc2)sc1C(=O)c1cc(F)cc(F)c1` [Example 52, [4-Amino-2-[[4-[4-(2-hydroxyethyl)-1-piperazinyl]phenyl]amino]-5-thiazolyl](3,5-difluorophenyl)methanone]: the IC50 stood at 1.2 µM in test [1], 2.3 µM in test [2], 0.028 µM in test [3] and 0.7 µM in test [4].
For `COc1cccc(C(=O)c2sc(Nc3ccc(N4CCN(CCO)CC4)cc3)nc2N)c1` [Example 53, [4-Amino-2-[[4-[4-(2-hydroxyethyl)-1-piperazinyl]phenyl]amino]-5-thiazolyl](3-methoxyphenyl)methanone], the IC50 came out at 2.3 µM in test [1], 2.5 µM in test [2], 0.006 µM in test [3] and 1.3 µM in test [4].
For `Nc1nc(Nc2ccc(N3CCNCC3)cc2)sc1C(=O)c1cccc(F)c1` [Example 54, [4-Amino-2-[[4-(1-piperazinyl)phenyl]amino]-5-thiazolyl](3-fluorophenyl)methanone], in that order: 0.3 µM, 0.7 µM, 0.013 µM and 0.2 µM.
`Nc1nc(Nc2ccc(N3CCNCC3)cc2)sc1C(=O)c1ccc(N2CCCC2)cc1` [Example 55, [4-Amino-2-[[4-(1-piperazinyl)phenyl]amino]-5-thiazolyl][4-(1-pyrrolidinyl)phenyl]methanone]: the IC50 was 4.3 µM in test [1], 3.8 µM in test [2], 0.05 µM in test [3] and 3.2 µM in test [4].
Regarding `COc1ccc(C(=O)c2sc(Nc3ccc(N4CCNCC4)cc3)nc2N)cc1F` [Example 56, [4-Amino-2-[[4-(1-piperazinyl)phenyl]amino)-5-thiazolyl](3-fluoro-4-methoxyphenyl)methanone], the half-maximal inhibitory concentration (IC50) in test [1] stood at 1 µM; in test [2], 0.8 µM; in test [3], 0.014 µM; in test [4], 0.8 µM.
